Experimental data taken from patent US12466813B2, “PRC1 inhibitors and methods of treatment therewith” (The Regents of the University of Michigan, priority 2018, dated 2025).

target: T1, RING1B-BMI1 (Homo sapiens, UniProt Q99496); assay: KD classes of Table A (direct binding to Ring1B-Bmi1); conditions: class given in Table A
T1 sequence (Q99496 1-336): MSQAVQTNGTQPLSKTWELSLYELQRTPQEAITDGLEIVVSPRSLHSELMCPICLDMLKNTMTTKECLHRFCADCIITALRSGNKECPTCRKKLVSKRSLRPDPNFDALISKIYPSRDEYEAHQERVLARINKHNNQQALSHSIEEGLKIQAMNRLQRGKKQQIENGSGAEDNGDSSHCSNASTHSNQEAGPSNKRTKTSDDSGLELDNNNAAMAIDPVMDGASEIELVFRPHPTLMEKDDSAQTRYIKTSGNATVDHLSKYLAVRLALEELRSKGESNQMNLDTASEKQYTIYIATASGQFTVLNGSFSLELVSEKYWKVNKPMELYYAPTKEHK
T1 sequence (P35226 1-326 partner): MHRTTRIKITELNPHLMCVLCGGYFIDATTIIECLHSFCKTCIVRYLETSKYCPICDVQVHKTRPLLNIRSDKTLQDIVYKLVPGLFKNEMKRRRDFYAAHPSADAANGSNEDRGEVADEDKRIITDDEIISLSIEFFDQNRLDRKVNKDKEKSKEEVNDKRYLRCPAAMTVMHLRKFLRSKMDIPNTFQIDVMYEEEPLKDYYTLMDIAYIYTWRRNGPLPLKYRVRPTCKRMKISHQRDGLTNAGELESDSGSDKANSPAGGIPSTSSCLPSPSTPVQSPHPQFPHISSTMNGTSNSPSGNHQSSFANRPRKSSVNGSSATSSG
Protocol: Experiments were conducted during development of embodiments herein to develop small molecule inhibitors of PRC1 by targeting the Ring1B-BMI1 E3 ligase. These compounds bind directly to Ring1B-Bmi1 with low-micromolar affinity and inhibit PRC1 in vitro and in cells. […] Experiments were conducted during development of embodiments herein to test COMPOUND 1 in leukemia stem cell models represented by TEX cells (Ref. 22; herein incorporated by reference in its entirety) and M9-ENL1 cells (Ref. 23; herein incorporated by reference in its entirety). […] In some embodiments, COMPOUND 1 and COMPOUND 1 analogs are find use as agents in targeting leukemia and other cancer stem cells.
The compounds listed in Table A have been synthesized and/or tested for activity in inhibiting activity of PRC1 complex, and are within the scope herein.

Row | Structure (SMILES) | Kd [µM]
1 | CC(C)c1c(-c2cc(F)cc3[nH]ccc23)[nH]c(C(=O)O)c1-c1ccnc2[nH]ccc12 [compound 74] | < 20
2 | CC(C)c1c(-c2ccnc3[nH]ccc23)[nH]c(C(=O)O)c1-c1c(Cl)ccc2[nH]ccc12 [compound 75] | < 20
3 | CC(C)c1c(-c2cccc3[nH]ccc23)cn(CC(=O)O)c1-c1cccc2[nH]ccc12 [compound 76] | < 20
4 | CCc1c(-c2cccc3[nH]ccc23)[nH]c(C(=O)O)c1-c1cccc2c1ccn2CCO [compound 77] | 20 to 50
5 | CCc1c(-c2cccc3[nH]ccc23)[nH]c(C(=O)O)c1CC1CCCCC1 [compound 78] | 20 to 50
6 | CCc1c(-c2cccc3[nH]ccc23)[nH]c(C(=O)O)c1Cc1ccccc1 [compound 79] | 20 to 50
7 | CCc1c(-c2cccc3[nH]ccc23)[nH]c(C(=O)O)c1-c1cc(N)ccc1Cl [compound 80] | 20 to 50
8 | CCc1c(-c2cccc3[nH]ccc23)[nH]c(C(=O)O)c1-c1cc([N+](=O)[O-])ccc1Cl [compound 81] | 20 to 50
9 | CCc1c(-c2cccc3[nH]ccc23)[nH]c(C(=O)O)c1-c1ccccc1C(F)(F)F [compound 82] | 20 to 50
10 | CCc1c(-c2cccc3[nH]ccc23)[nH]c(C(=O)O)c1-c1ccccc1C [compound 83] | 20 to 50
11 | CCc1c(-c2cccc3[nH]ccc23)[nH]c(C(=O)O)c1-c1cccc(Cl)c1Cl [compound 84] | 20 to 50
12 | CCc1c(-c2cccc3[nH]ccc23)[nH]c(C(=O)O)c1-c1cccc(OC)c1 [compound 85] | 20 to 50
13 | CCc1c(-c2cccc3[nH]ccc23)[nH]c(C(=O)O)c1-c1cccc(F)c1 [compound 86] | 20 to 50
14 | CCc1c(-c2cccc3[nH]ccc23)[nH]c(C(=O)O)c1-c1ccc(OC)cc1 [compound 87] | 20 to 50
15 | CCc1c(-c2cccc3c2ccn3C)[nH]c(C(=O)O)c1-c1ccccc1Cl [compound 88] | 20 to 50
16 | CCc1c(-c2cccc3[nH]ccc23)[nH]c(C(=O)O)c1-c1ccccc1 [compound 89] | 20 to 50

Row | Structure (SMILES) | Kd [µM]
17 | CCc1c(-c2cccc3[nH]ccc23)[nH]c(C(=O)O)c1CCc1ccccc1 [compound 90] | 50 to 100
18 | CCc1c(-c2cccc3[nH]ncc23)[nH]c(C(=O)O)c1-c1ccc(OC)cc1Cl [compound 91] | 50 to 100
19 | CCc1c(-c2cccc3[nH]ccc23)[nH]c(C(=O)O)c1-c1ccc(O)cc1Cl [compound 92] | 50 to 100
20 | Cc1c(-c2cccc3[nH]ccc23)[nH]c(C(=O)O)c1-c1ccccc1Cl [compound 93] | 50 to 100
21 | CCc1c(-c2cccc3[nH]ccc23)[nH]c(C(=O)O)c1-c1cnccc1Cl [compound 94] | 50 to 100
22 | CCCc1c(-c2cccc3[nH]ccc23)[nH]c(C(=O)O)c1-c1ccccc1Cl [compound 95] | 50 to 100
23 | CCc1c(-c2cccc3[nH]ccc23)[nH]c(C(=O)O)c1-c1ccccc1-c1ccccc1 [compound 96] | 50 to 100
24 | CCc1c(-c2cccc3[nH]ccc23)[nH]c(C(=O)O)c1-c1cccc(Oc2ccccc2)c1 [compound 97] | 50 to 100
25 | CCc1c(-c2cccc3[nH]ccc23)[nH]c(C(=O)O)c1-c1cccc(C)c1 [compound 99] | 50 to 100
26 | CCc1c(-c2cccc3[nH]ccc23)[nH]c(C(=O)O)c1-c1ccc(C)cc1 [compound 100] | 50 to 100
27 | CCc1c(-c2cccc3c2ccn3C)[nH]c(C(=O)O)c1-c1ccccc1 [compound 101] | 50 to 100
28 | CCc1c(-c2cccc3[nH]ccc23)[nH]c(C(=O)O)c1C1CCCCC1 [compound 102] | > 100
29 | CCc1c(-c2c(OC)cccc2OC)[nH]c(C(=O)O)c1-c1ccc(OC)cc1Cl [compound 104] | > 100
30 | CCc1c(-c2cccc3[nH]ccc23)[nH]c(C(=O)O)c1-c1ccc(N)cc1 [compound 105] | > 100
31 | CCc1c(-c2cccc3[nH]ccc23)[nH]c(C(=O)O)c1-c1ccc(-c2ccccc2)cc1 [compound 106] | > 100
32 | CCc1c(-c2ccccc2O)[nH]c(C(=O)O)c1-c1ccccc1Cl [compound 107] | > 100

Second part, the molecule after the results:

Row | Kd [µM] | Structure (SMILES)
33 | < 20 | CC(C)c1c(-c2cc(F)cc3[nH]ccc23)[nH]c(C(=O)O)c1-c1c(Cl)ccc2[nH]c(C(=O)O)cc12 [compound 53]
34 | < 20 | CC(C)c1c(-c2cc(F)cc3[nH]ccc23)[nH]c(C(=O)O)c1-c1cc(C(F)(F)F)cc2c1ccn2CC(=O)O [compound 54]
35 | < 20 | CC(C)c1cc(-c2c(C(=O)O)[nH]c(-c3cc(F)cc4[nH]ccc34)c2C(C)C)c2ccn(CC(=O)O)c2c1 [compound 55]
36 | < 20 | COc1ccc(-c2c(C(=O)O)[nH]c(-c3cc(F)cc4[nH]ccc34)c2C(C)C)c(Cl)c1 [compound 56]
37 | < 20 | COc1cccc(-c2c(C(=O)O)[nH]c(-c3cc(F)cc4[nH]ccc34)c2C(C)C)c1Cl [compound 57, 3-(2-chloro-3-methoxyphenyl)-5-(6-fluoro-1H-indol-4-yl)-4-isopropyl-1H-pyrrole-2-carboxylic acid]
38 | < 20 | COc1ccc(-c2c(C(=O)O)[nH]c(-c3cc(F)cc4[nH]ccc34)c2C(C)C)c(F)c1 [compound 58]
39 | < 20 | COc1ccc(-c2c(C(=O)O)[nH]c(-c3cc(F)cc4[nH]ccc34)c2C(C)C)c(C)c1 [compound 59]
40 | < 20 | CC(C)c1c(-c2cc(F)cc3[nH]ccc23)[nH]c(C(=O)O)c1-c1cc(OCC(=O)O)ccc1Cl [compound 60]
41 | < 20 | CC(C)c1c(-c2cc(F)cc3[nH]ccc23)[nH]c(C(=O)O)c1-c1ccc2c(c1)OCCO2 [compound 61]
42 | < 20 | CC(C)c1c(-c2cc(F)cc3[nH]ccc23)[nH]c(C(=O)O)c1-c1ccc(Oc2nccs2)cc1 [compound 62]
43 | < 20 | CC(C)c1c(-c2cc(F)cc3[nH]ccc23)[nH]c(C(=O)O)c1-c1ccc(Oc2ccncc2)cc1 [compound 63]
44 | < 20 | CC(C)c1c(-c2cc(F)cc3[nH]ccc23)[nH]c(C(=O)O)c1-c1cccc(Oc2nccs2)c1 [compound 64]
45 | < 20 | CCc1c(-c2cccc3[nH]ccc23)[nH]c(C(=O)O)c1-c1ccccc1Cl [compound 65]
46 | < 20 | C#CCCCCC(=O)NCCn1ccc2c(-c3c(C(=O)O)[nH]c(-c4cc(F)cc5[nH]ccc45)c3C(C)C)cccc21 [compound 66]
47 | < 20 | C#CCCCCC(=O)NCCc1c[nH]c2cc(F)cc(-c3[nH]c(C(=O)O)c(-c4c(Cl)ccc5[nH]ccc45)c3C(C)C)c12 [compound 67]
48 | < 20 | C#CCCCCC(=O)NCCCCCC(=O)NCCc1c[nH]c2cc(F)cc(-c3[nH]c(C(=O)O)c(-c4c(Cl)ccc5[nH]ccc45)c3C(C)C)c12 [compound 68]
49 | < 20 | C#CCOCCOCCOCCC(=O)NCCc1c[nH]c2cc(F)cc(-c3[nH]c(C(=O)O)c(-c4c(Cl)ccc5[nH]ccc45)c3C(C)C)c12 [compound 69]
50 | < 20 | CC(C)c1c(-c2cc(F)cc3[nH]cc(CCNC(=O)CCCCCNC(=O)c4ccc5c(c4)C(=O)OC54c5ccc(O)cc5Oc5cc(O)ccc54)c23)[nH]c(C(=O)O)c1-c1c(Cl)ccc2[nH]ccc12 [compound 70]
51 | < 20 | CCn1c(C(=O)O)c(-c2cc(OC)cc3[nH]ccc23)c(C(C)C)c1-c1cc(F)cc2[nH]ccc12 [compound 71]
52 | < 20 | COCCC(=O)NCCc1c[nH]c2cc(F)cc(-c3[nH]c(C(=O)O)c(-c4c(Cl)ccc5[nH]ccc45)c3C(C)C)c12 [compound 72]
53 | < 20 | CCC(C)c1c(-c2cccc3[nH]ccc23)[nH]c(C(=O)O)c1-c1cccc2[nH]ccc12 (centres unmarked) [compound 73]
